What was measured:
[1] = target: Serotonin 3 (5-HT3) receptor; test: Binding affinity towards [3H]quipazine labeled 5-hydroxytryptamine 3 receptor sites in HG108-15; assay type: protein-complex assay, Cavia porcellus
Rattus norvegicus [2] = test: Effective dose causing reduction of serotonin effect at 5 min administered iv in Bezold-Jarisch reflex test; assay type: functional
Rattus norvegicus [3] = test: Inhibition of restraint stress induced defecation by oral administration (inhibition at 1 mg/kg)
Rattus norvegicus [4] = test: Inhibition of restraint stress induced defecation by oral administration (inhibition percent at 1 mg/kg)
Rattus norvegicus [5] = species on record: Rattus norvegicus; test: Inhibition of wrap-restraint stress-induced colonic propulsion measured by the time required to expel a teflon ball inserted 3 cm into the rat colon; assay type: functional; conditions: read-out: ID50 (the source's name)
Rattus norvegicus [6] = species on record: Rattus norvegicus; test: animal or person; assay type: functional; conditions: sc, dose mg/kg 1-10, route subcutaneous, read-out: ID50 (the source's name)
Description: Inhibitory dose causing inhibition of increase in 5-HT induced defecation by sc administration 1 to 10 mg/kg

Rattus norvegicus [7] = test: Inhibitory dose causing inhibition of increase in castor oil induced diarrhea by oral administration at 1 ml/rat; assay type: functional; conditions: read-out: ID50 (the source's name)
Rattus norvegicus [8] = species on record: Rattus norvegicus; test: animal or person; assay type: functional; conditions: sc, route subcutaneous, read-out: ID50 (the source's name)
Description: Inhibitory dose causing inhibition of increase in thyrotropin-releasing hormone (TRH) induced defecation by sc administration at 1 mg/kg

Rattus norvegicus [9] = test: Inhibitory dose causing inhibition of restraint stress induced defecation by oral administration; assay type: functional; conditions: read-out: ID50 (the source's name)
Rattus norvegicus [10] = test: Inhibitory dose causing inhibition of restraint stress induced defecation by oral administration ((inhibition percent at 1 mg/kg); assay type: functional; conditions: read-out: ID50 (the source's name)
Rattus norvegicus [11] = test: Inhibitory dose causing inhibition of increase in 5-HT induced defecation by sc administration at 1 to 10 mg/kg; assay type: functional; conditions: dose mg/kg 1-10, route subcutaneous, read-out: ID50 (the source's name)

Compound | Ki [1] [nM] | ED50 (Rattus norvegicus [2]) [µg/kg] | Inhibition % at 1 mg/kg (Rattus norvegicus [4]) [%] | ED50 (Rattus norvegicus [9]) [µg/kg] | further results
CC(C)Cc1cc(C(=O)OC2CC3CCC(C2)N3C)c2ccccc2n1 (configuration not stated) | 0.69 | 5.6 |  |  | Inhibition % at 1 mg/kg (Rattus norvegicus [3]): 28%
CCCCn1c(=O)c(C(=O)NC2CC3CCC(C2)N3C)c(O)c2cccnc21 (configuration not stated) | 6.4 | 290 |  |  | Inhibition % at 1 mg/kg (Rattus norvegicus [3]): 35%
CCCOc1cc(C(=O)NC2CC3CCC(C2)N3C)c2ccccc2n1 (configuration not stated) | 42 | 1540 | 29 |  | 
CN1C2CCC1CC(NC(=O)c1cnc3ccccc3c1O)C2 (configuration not stated) | 1.5 | 0.1 |  | 1400 | ED50 (Rattus norvegicus [5]): 1800 µg/kg; ED50 (Rattus norvegicus [6]): 690 µg/kg; ED50 (Rattus norvegicus [7]): 790 µg/kg; ED50 (Rattus norvegicus [8]): 53 µg/kg
CCCCOc1cc(C(=O)OC2CC3CCC(C2)N3C)c2ccccc2n1 (configuration not stated) | 0.39 | 200 | 64 |  | 
CC(C)n1c(=O)cc(C(=O)OC2CC3CCC(C2)N3C)c2ccccc21 (configuration not stated) | 0.32 | 81 |  | 40 | 
CCCCCCn1c(=O)cc(C(=O)OC2CC3CCC(C2)N3C)c2ccccc21 (configuration not stated) | 1.1 | 86 |  | 66 | 
CCCCn1c(=O)cc(C(=O)OC2CC3CCC(C2)N3C)c2ccccc21 (configuration not stated) | 0.68 | 41 |  | 140 | 
COc1cc(C(=O)OC2CC3CCC(C2)N3C)c2ccccc2n1 (configuration not stated) | 0.58 | 420 |  | 45000 | 
CN1C2CCC1CC(NC(=O)c1cc(=O)n(-c3ccccc3)c3ccccc13)C2 (configuration not stated) | 63 | 190 | 14 |  | 
Cc1nc2ccccc2c(O)c1C(=O)NC1CC2CCC(C1)N2C (configuration not stated) | 7.2 | 15 |  |  | Inhibition % at 1 mg/kg (Rattus norvegicus [3]): 41%
CCCn1c(=O)cc(C(=O)NC2CC3CCC(C2)N3C)c2ccccc21 (configuration not stated) | 67 | 350 | 12 |  | 
CCCCCn1c(=O)cc(C(=O)OC2CC3CCC(C2)N3C)c2ccccc21 (configuration not stated) | 0.96 | 59 |  | 73 | 
CC(C)Cn1c(=O)cc(C(=O)OC2CC3CCC(C2)N3C)c2ccccc21 (configuration not stated) | 0.47 | 33 |  | 13 | ED50 (Rattus norvegicus [5]): 10 µg/kg; ED50 (Rattus norvegicus [6]): 18 µg/kg; ED50 (Rattus norvegicus [7]): 1400 µg/kg; ED50 (Rattus norvegicus [8]): 21 µg/kg
CC(C)COc1cc(C(=O)OC2CC3CCC(C2)N3C)c2ccccc2n1 (configuration not stated) | 0.44 | 240 |  |  | ED50 (Rattus norvegicus [10]): 36000 µg/kg
CCCCOc1cc(C(=O)NC2CC3CCC(C2)N3C)c2ccccc2n1 (configuration not stated) | 19 | 540 | 43 |  | 
CN1C2CCC1CC(OC(=O)c1cc(=O)n(Cc3ccccc3)c3ccccc13)C2 (configuration not stated) | 1.3 | 150 | 22 |  | 

Compound | Ki [1] [nM] | ED50 (Rattus norvegicus [2]) [µg/kg] | Inhibition % at 1 mg/kg (Rattus norvegicus [4]) [%] | ED50 (Rattus norvegicus [9]) [µg/kg] | further results
CCCCn1c(=O)c(C(=O)NC2CC3CCC(C2)N3C)c(O)c2ccccc21 (configuration not stated) | 0.48 | 290 |  |  | Inhibition % at 1 mg/kg (Rattus norvegicus [3]): 61%
CCCCCOc1cc(C(=O)OC2CC3CCC(C2)N3C)c2ccccc2n1 (configuration not stated) | 0.86 | 1130 |  | 30000 | 
CCn1c(=O)cc(C(=O)OC2CC3CCC(C2)N3C)c2ccccc21 (configuration not stated) | 1.1 | 22 |  | 52 | 
CCCCn1c(=O)cc(C(=O)NC2CC3CCC(C2)N3C)c2ccccc21 (configuration not stated) | 60 | 370 | 47 |  | 
CN1C2CCC1CC(NC(=O)c1c(O)c3ccccc3n(-c3ccccc3)c1=O)C2 (configuration not stated) | 1.4 | 73 |  |  | Inhibition % at 1 mg/kg (Rattus norvegicus [3]): 48%
CCOc1cc(C(=O)OC2CC3CCC(C2)N3C)c2ccccc2n1 (configuration not stated) | 0.88 | 70 | 36 |  | 
CCCn1c(=O)cc(C(=O)OC2CC3CCC(C2)N3C)c2ccccc21 (configuration not stated) | 0.45 | 330 |  | 170 | 
Cn1cc(C(=O)C2CCc3nc[nH]c3C2)c2ccccc21 (configuration not stated) | 0.071 | 0.089 |  | 5.2 | ED50 (Rattus norvegicus [5]): 69 µg/kg; ED50 (Rattus norvegicus [6]): 13 µg/kg; ED50 (Rattus norvegicus [7]): 1100 µg/kg; ED50 (Rattus norvegicus [8]): 5.1 µg/kg
CN1C2CCC1CC(OC(=O)c1cc(-c3ccccc3)nc3ccccc13)C2 (configuration not stated) | 71 | 340 |  |  | 
CC(C)CCn1c(=O)cc(C(=O)OC2CC3CCC(C2)N3C)c2ccccc21 (configuration not stated) | 1.5 | 59 |  | 41 | 
CC(C)Oc1cc(C(=O)NC2CC3CCC(C2)N3C)c2ccccc2n1 (configuration not stated) | 53 | 1860 |  | 39000 | 
CN1C2CCC1CC(OC(=O)c1cc(=O)n(-c3ccccc3)c3ccccc13)C2 (configuration not stated) | 0.51 | 44 | 59 |  | 
CN1C2CCC1CC(OC(=O)c1cc(=O)n(C)c3ccccc13)C2 (configuration not stated) | 2.6 | 180 | 47 |  | 
CN1C2CCC1CC(OC(=O)c1cnc3ccccc3c1O)C2 (configuration not stated) | 6.1 | 1.7 |  |  | Inhibition % at 1 mg/kg (Rattus norvegicus [3]): 13%
CCCCCCOc1cc(C(=O)OC2CC3CCC(C2)N3C)c2ccccc2n1 (configuration not stated) | 3.2 | 7680 | 23 |  | 
Cc1nccn1CC1CCc2c(c3ccccc3n2C)C1=O (configuration not stated) [ONDANSETRON] |  |  |  | 27 | ED50 (Rattus norvegicus [5]): 1600 µg/kg; ED50 (Rattus norvegicus [11]): 530 µg/kg; ED50 (Rattus norvegicus [7]): 1400 µg/kg; ED50 (Rattus norvegicus [8]): 310 µg/kg
